Like-named read-outs stand apart in the source and are kept apart here.
Columns and labels:
cytomegilovirus = test: M413 cells, CMV; assay type: cell-based, cytomegalovirus (CMV)
Experimental: Confluent monolayers of M413 cells (a type of dipliod human fibroblast cells) in 48 well microtiter plates were used. They were grown in Dulbecco's MEM (minimum essential medium) supplemented with 10% fetal bovine serum and 50 ug/ml gentamicin.
Stock cytomegalovirus (CMV) was diluted in a series of 10-fold dilutions in the above medium, and […] amounts were added to the wells of the microtiter plates and allowed to absorb virus for 90 minutes at 37 °C.
Unabsorbed virus was removed by aspiration and 0.5 ml of medium containing dilutions of drug was added to duplicate wells at each concentration of virus.
After incubating for 5 days, fresh medium was added to each well, no additional drug being included, and the plates were scored for cytopathic effects the next day. The viruses produce characteristic enlarged rounded cells in a cellular background that is completely devoid of such cells.
The data were expressed as the reciprocal of the greatest dilution producing any of the characteristic rounded cells (the "titer"), and the percent inhibition was calculated by comparing the experimental titer with the control titer, with intermediate results interpreted as those of Experiment la(a).
The procedure described for Experiment la(j) was followed with cytomegalovirus (CMV) substituted for MAB to HSV-1.

[1] = system: Human peripheral blood mononuclear cells; test: Experiment 1a(d): human cell viability, trypan blue counts; assay type: cell-based; settings: 18 hours; for Cells/ml (x10^5) / Viability (%): 37° C
Experimental: Human peripheral blood mononuclear cells were incubated for 18 hours in the presence of various concentrations of IPA and azidothymidine (AZT) at 37° C after which time cell viability was determined by visual counts of cells in the presence of trypan blue. Two controls were run, one with each series of experiments.

HIV-1 = test: Experiment la(b): H9 cells, HIV-1, antibody assay; assay type: cell-based; settings: Human immunodeficiency virus 1
Experimental: Fresh macrophage cultures were obtained by incubation of mononuclear cells obtained from a leukopak directly in the wells of a microtiter plate having 6 wells per row. After removal of non-adherent cells, each row of the adherent macrophages was infected with 10-fold serial dilutions of HIV-I, with the use of polybrene to enhance uptake of the virus. After one to two hours, the virus inoculum was removed and replaced with fresh normal growth medium. The fresh medium for each row contained a particular concentration of AZT, dideoxy cytidine (ddC), or compound la, as indicated by the left-hand column of Table la(a). The first row of wells acted as a control, and to it was added fresh medium containing none of the three drugs. Medium levels were maintained for two to four weeks to allow replication of the virus to take place, with at least one complete fluid change to remove residual virus inoculum. The contents of each well were then tested for the level of HIV p24 antigen present using a commercially available antigen capture kit employing a radio-immunoassay which can detect as little as 10'^9gm of p24 present in a sample. The above procedure was done in duplicate runs.
A procedure similar to that followed in Experiment la(a) was followed using infected H9 cells, H9 cells being a permanent human T-cell line.
A procedure similar to that followed in Experiment la(a) was followed using infected H9 cells, being a permanent human T-cell line.

[2] = system: T.b. brucei, T.b. gambiense and T.b. rhodesiense; test: Isolated bloodstream trypomastigote (TRY) in-vitro screen; assay type: cell-based
Experimental: Primary screening for new trypanocides has made extensive use of rodent systems, in which host survival time is a simple indicator of drug activity. In-vitro screens have used a variety of trypomastigote types (see Table 3, below). […] Most early in-vitro screens employed a short test in which bloodstream trypomastigotes were isolated from an infected rodent and maintained for up to 24 h in a simple drug-containing media. Two significant modifications of this technique include maintaining isolated bloodstream trypomastigotes in drug-containing media for 3-4 hours at 37° C in micro-titre plates and their subsequent viability assessed by the uptake of radiolabelled precursors or motility and infectivity to mice.
In-vitro studies on isolated bloodstream trypomastigotes were also used in the rational biochemical approaches towards the chemotherapy of T. brucei infections involving inhibitors of carbohydrate catabolism salicyl hydroxamic acid plus glycerol), of polyamine synthesis (methylgyoxal bis-guanylhydrazone and - DFMO), and of surface coat glycoprotein synthesis (Tunicamycin). In these studies, activity of the compounds are shown in-vitro and in-vivo, whereas the sensitivity of isolated bloodstream trypomastigotes to toxic oxygen radicals generated by naphthoquinones was not shown by the parasites in mice. The activity of the standard anti-trypanosomals-melarsoprol, pentamidine and suramin and tested compounds according to the present invention in in-vitro systems is shown in Table 3.
In-vitro and in-vivo models were used to test activities of a selection of many compounds. Those activities are summarized in Tables 1-3, showing variation between systems and species. Activities measured in the MP mo and HM mo models have shown the best correlation with results obtained in hamster and mouse models.

CC(C)=CCNc1ncnc2c1ncn2[C@@H]1O[C@H](CO)[C@@H](O)[C@H]1O [IPA, N^6-(Δ^2-isopentenyl) adenosine]
levels of cytomegilovirus in cells in-vitro (cytomegilovirus): reduces | Cells/ml (x10^5) ([1]; 0.1 µM): 2.4 Cells/ml (x10^5) | Viability (%) ([1]; 0.1 µM): 86% | Cells/ml (x10^5) ([1]; 0.3 µM): 1.8 Cells/ml (x10^5) | Viability (%) ([1]; 0.3 µM): 82% | Cells/ml (x10^5) ([1]; 1 µM): 2.8 Cells/ml (x10^5) | Viability (%) ([1]; 1 µM): 100% | Cells/ml (x10^5) ([1]; 3 µM): 2.6 Cells/ml (x10^5) | Viability (%) ([1]; 3 µM): 87% | Cells/ml (x10^5) ([1]; 10 µM): 3.0 Cells/ml (x10^5) | Viability (%) ([1]; 10 µM): 94% | Cells/ml (x10^5) ([1]; 30 µM): 3.8 Cells/ml (x10^5) | Viability (%) ([1]; 30 µM): 95% | Cells/ml (x10^5) ([1]; 100 µM): 3.8 Cells/ml (x10^5) | Viability (%) ([1]; 100 µM): 90% | Cells/ml (x10^5) ([1]; 300 µM): 2.2 Cells/ml (x10^5) | Viability (%) ([1]; 300 µM): 79% | Cells/ml (x10^5) ([1]; 1000 µM): 2.8 Cells/ml (x10^5) | Viability (%) ([1]; 1000 µM): 82% | Cells/ml (x10^5) ([1]; 3000 µM): 2.2 Cells/ml (x10^5) | Viability (%) ([1]; 3000 µM): 92% | cell viability ([1]; 6mM): slight reduction | Cells/ml (x10^5) ([1]; 6000 µM): 2.4 Cells/ml (x10^5) | Viability (%) ([1]; 6000 µM): 75% | toxic effect (cell viability) ([1]; concentrations of from 0.1 µM to 3 u.M): no toxic effect | IC50 (HIV-1; H9, HIV-1, as read from Figure 15, read-out: IC50): 2 µM | IC90 (HIV-1; H9, HIV-1, as read from Figure 15, read-out: IC90): 3 µM | IC50 (HIV-1; H9 Cells, from Figures 16 and 17, read-out: IC50 - The concentration of IPA which inhibits the replication of HIV-1 by 50%): 6 µM | IC90 (HIV-1; H9 Cells, from Figures 16 and 17, read-out: IC90 - The concentration of IPA which inhibits the replication of HIV-1 by 90%): 10 µM | activity, isolated bloodstream TRY [2]: +
